# Experimental data as given in US20070270403A1 (priority 2003, published 2007).
# Experiments:
# 5-HT release in NAcc = experiment: In vivo microvoltammetry, 5-HT release in NAcc (clozapine studies); design: species or system Sprague-Dawley Rattus Norvegicus
# Description: (§1) There is an increasing awareness that a psychosis, similar to that of schizophrenic psychosis, can be derived from cocaine addiction. […] Release mechanisms for monoamines, were determined by using a depolarization blocker, gamma-butyrolactone (γBL). […] Acute and Subacute studies were performed for each treatment group.
# (§2) The stereotaxic equipment was purchased from David Kopf Instruments, Tujunga, Calif. A Ag/AgCl reference electrode was placed in contact with dura, 7 mm anteriorally and contralaterally to the indicator microelectrode. A stainless steel auxiliary microelectrode was placed in contact with dura. BRODERICK PROBE® microelectrodes were manufactured on site.
# (§3) In vivo microvoltammetric studies on conscious Sprague-Dawley laboratory rats were begun nine to fifteen days after the aseptic surgical operations were performed. On each experimental day, the animal was placed in a Plexiglas-copper faradaic chamber. The three-microelectrode assembly, enclosed within the animal's prosthetic acrylic cap, was connected to a CV37 detector by means of a mercury commutator (Br. Res. Instr., Princeton, N.J.), a flexible cable, and a mating connector (BJM Electronics, Staten Island, N.Y.). The CV37 detector was electrically connected to a Minigard surge suppresser (Jefferson Electric, Magnetek, N.Y.) which was then connected to an electrical ground in isolation. […] Each animal was used as its own control. Changes in synaptic concentrations of DA and 5-HT are presented as percent change (% of control) in order to minimize normal between-animal variations. […] In vivo microvoltammetric scans were recorded in sec and repeated every five min for a period of 2 hrs before each treatment and a period of two hrs after each treatment.
# (§4) Potentials were applied with a CV37 detector (BAS, West Lafayette, Ind.). Potentials were applied from −0.2V to +0.4V with respect to a Ag/AgCl (1M NaCl) electrode, at a scan rate of 10 mV/sec at time constants of 5 and 1 tau. One scan was completed in 60 sec. Non-faradaic charging current was eliminated in the first 25 sec.
# (§5) Calibration curves were determined experimentally, in vitro, in a freshly prepared deoxygenated physiological saline-phosphate buffer solution (0.01 M, pH=7.4). We use ultra pure Nitrogen (N2) (T. W. Smith Corp., Bklyn, N.Y.) to deoxygenate the buffer solution. […] Calibration studies were also performed in freshly prepared deoxygenated buffer solutions containing phosphotidylethanolamine (PEA), combined with bovine serum albumin (BSA) (Sigma Aldrich, St. Louis, Mo.), a solution which closely mimics brain constituents. […] Detection limits for basal synaptic concentrations of DA and 5-HT in NAcc were 12 nM and 2 nM respectively.
# [1] = Pharmacokinetics of cocaine and its metabolites (literature); details: rat, in vivo, ip; i.p. cocaine, extrapolated
# DA release in NAcc = experiment: In vivo microvoltammetry, DA release in NAcc (clozapine studies); design: species or system Sprague-Dawley Rattus Norvegicus; details: Subacute, cocaine 10 mg/kg i.p. on Day 1, hr period of study
# Description: as §1, §2, §3, §4, §5
# [2] = system: Sprague-Dawley laboratory rats; experiment: Locomotor activity (ambulations) by infrared photobeams (clozapine studies); format: in vivo, Sprague-Dawley Rattus Norvegicus; details: Subacute, cocaine 10 mg/kg i.p. on Day 1
# Description: Locomotor activity (ambulation) was monitored with infrared photobeams at the same time as DA and 5-HT release in NAcc was detected with BRODERICK PROBES® in conjunction with In Vivo Microvoltammetry. The chamber was faradaic, covered with copper to refract possible electrical artifacts (dimensions: 24 in (width) by 18 in (depth) by 23.5 in (height)). A 16 by 16 array of these infrared photobeams, were held in place by an aluminum frame which was situated ¾ in above the Plexiglas floor of the chamber to detect locomotor activity. Photobeams were sampled by a Pentium computer to define the x-y position of the animal within a 1.5 in resolution every 100 msec. When an x-y position was calculated, it was used to define the frequency of locomotor activity in counts. The locomotor activity system is a modified version of an Activity Pattern Monitor (APM) (San Diego Instruments, San Diego, Calif.). Behavioral data is presented in absolute frequency, i.e., number of counts recorded.
# The first hr pre-drug allowed exploratory behavior. Exploratory behavior is defined as open-field behavior of ambulations (forward locomotion) wherein animals respond to the stimuli of a novel environment with high frequency of behavioral counts. The second hr pre-drug allowed the animal to become habituated before treatment.
# In the Acute studies, each drug was administered at the end of the habituation period. Baseline (control) values were taken every five min for the last thirty min of the habituation period at which time drug injection(s) took place. Electrochemical recordings for DA and 5-HT release in NAcc, were continued for two hrs; at the same time, locomotor behavior continued to be monitored and recorded with infrared photobeams. At the end of the 2 hr drug(s) study, animals were then placed back in their home cages.
# In the Subacute studies, which took place twenty-four hrs later, the animals were again placed in the faradaic behavioral chamber and no further drug was administered. Recordings of separate electrochemical signals for DA and 5-HT release in NAcc, were taken for one hr; at the same time, locomotor behavior was monitored and recorded with infrared photobeams.
# Neurochemical and behavioral data, derived from the last thirty minutes of the habituation period, provided the baseline data. […] Where appropriate, data points in the time course were subjected to 95% Confidence Limits (C.L.).
structure (smiles),measurement,setting,value
"COC(=O)[C@H]1[C@@H](OC(=O)c2ccccc2)C[C@@H]2CC[C@H]1N2C [Cocaine, cocaine]","Maximum decrease in 5-HT below baseline, Subacute",5-HT release in NAcc; 24 hr after cocaine 10 mg/kg i.p.,40%
same,Decrease in 5-HT release on Day 2 compared to drug effect on Day1,"5-HT release in NAcc; Subacute, cocaine 10 mg/kg i.p. on Day 1, second half hour of the study",approximately 150%
same,half-life,[1],~2 h
same,Decrease in DA release on Day 2 compared to drug effect on Day 1,DA release in NAcc,about 80%
same,Decrease in locomotor activity on Day 2 compared with Day 1 effects of cocaine,[2],250 counts
